Patent US20120129842A1, “BISTHIAZOLE INHIBITORS OF PRO-MATRIX METALLOPROTEINASE ACTIVATION” (priority 2010, published 2012)
Counter-ions that a name gives are not always drawn.

Assays:
[1] = molecular target: T1, proMMP9(20-445;ΔFnII) (SEQ ID NO:6) (Homo sapiens, UniProt P14780, DEL216-390); experiment: ThermoFluor binding assay with proMMP9(20-445;ΔFnII); details: pH 7.0
T1 construct: start methionine (N); made in house; host or cells: E. coli BL21(DE3) RIL
T1 sequence (P14780 with tags, fused parts or gaps DEL216-390): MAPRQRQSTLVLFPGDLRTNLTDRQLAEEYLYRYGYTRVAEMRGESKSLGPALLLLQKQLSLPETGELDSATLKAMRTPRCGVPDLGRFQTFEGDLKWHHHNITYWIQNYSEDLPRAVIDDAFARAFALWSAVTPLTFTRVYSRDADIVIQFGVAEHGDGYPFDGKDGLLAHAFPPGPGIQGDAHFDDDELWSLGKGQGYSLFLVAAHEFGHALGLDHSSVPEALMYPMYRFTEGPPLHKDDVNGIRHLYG
Procedure, shortened: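 proMMP9(20-445;ΔFnII) at 2.8 μM with 50 μM 1,8-ANS in 50 mM HEPES pH 7.0, 100 mM NaCl, 0.001% Tween-20, 2.5 mM MgCl2, 300 μM CaCl2; compounds serially diluted in DMSO. Heated 40–90 °C at 1 °C/min, fluorescence read at 500±25 nm. Tm fit by standard equations; binding fit using DSC/TF-derived thermodynamic parameters.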

[2] = molecular target: T2, proMMP9(67-444;ΔFnII) (SEQ ID NO:5) (Homo sapiens, UniProt P14780, DEL216-390); experiment: ThermoFluor binding assay with proMMP9(67-444;ΔFnII); details: pH 7.0
T2 construct: start methionine (N); made in house; host or cells: E. coli BL21(DE3) RIL
T2 sequence (P14780 with tags, fused parts or gaps DEL216-390): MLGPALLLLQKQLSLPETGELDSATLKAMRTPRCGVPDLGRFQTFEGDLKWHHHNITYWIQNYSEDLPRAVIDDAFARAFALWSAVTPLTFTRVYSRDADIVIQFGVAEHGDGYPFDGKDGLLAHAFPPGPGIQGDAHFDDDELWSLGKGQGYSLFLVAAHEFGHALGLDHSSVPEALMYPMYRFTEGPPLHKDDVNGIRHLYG
Procedure, shortened: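 Thermal shift binding with 3.5 μM proMMP9(67-444;ΔFnII) and 50 μM 1,8-ANS in 50 mM HEPES pH 7.0, 100 mM NaCl, 2.5 mM MgCl2, 300 μM CaCl2, 0.001% Tween-20, with serially diluted compound. Heated 40 to 90° C at 1° C/min; fluorescence-derived Tm fitted using DSC/ThermoFluor thermodynamic parameters.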

[3] = molecular target: T3, full-length proMMP9(1-707) (SEQ ID NO:1) (Homo sapiens, UniProt P14780, R574P); experiment: proMMP9/MMP3 P126 Activation Assay; assay type: biochemical; details: 20 nM proMMP9, 20 nM MMP3, 80 min 37° C.
T3 construct: made in house; host or cells: HEK293 (proMMP9, secreted); E. coli (MMP3)
T3 sequence (P14780 20-707 R574P): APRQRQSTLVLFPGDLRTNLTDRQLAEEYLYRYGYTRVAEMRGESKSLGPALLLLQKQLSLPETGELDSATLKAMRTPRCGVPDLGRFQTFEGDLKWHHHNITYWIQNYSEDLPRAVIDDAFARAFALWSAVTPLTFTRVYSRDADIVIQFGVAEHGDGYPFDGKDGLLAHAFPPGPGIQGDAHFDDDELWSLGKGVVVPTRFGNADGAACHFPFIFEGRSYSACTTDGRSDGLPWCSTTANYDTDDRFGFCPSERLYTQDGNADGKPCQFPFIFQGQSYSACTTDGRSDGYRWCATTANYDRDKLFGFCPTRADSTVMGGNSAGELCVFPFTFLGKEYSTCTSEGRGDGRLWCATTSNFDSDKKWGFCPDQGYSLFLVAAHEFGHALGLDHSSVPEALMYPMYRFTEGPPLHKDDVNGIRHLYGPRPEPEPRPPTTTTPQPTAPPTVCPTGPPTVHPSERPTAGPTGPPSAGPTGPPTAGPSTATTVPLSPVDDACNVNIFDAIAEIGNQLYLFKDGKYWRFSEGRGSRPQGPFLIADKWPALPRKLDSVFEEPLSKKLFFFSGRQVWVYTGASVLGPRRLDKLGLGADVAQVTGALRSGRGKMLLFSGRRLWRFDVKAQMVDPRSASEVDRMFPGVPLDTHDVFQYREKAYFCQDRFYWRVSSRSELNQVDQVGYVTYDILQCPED
Description: The reaction volume was 50 μL. […] Reactivity of residual MMP3 towards P-126 substrate was minimal under these conditions.

[4] = molecular target: proMMP13(1-268) (SEQ ID NO:7) (Homo sapiens, UniProt P45452); experiment: ThermoFluor binding assay with proMMP13(1-268); design: 6xHis (C); made in house; details: pH 7.0
Procedure, shortened: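 Thermal shift binding with 3.5 μM protein and 25 μM 1,8-ANS in 50 mM HEPES pH 7.0, 100 mM NaCl, 0.001% Tween-20, 2.5 mM MgCl2, 300 μM CaCl2. Samples were heated 40 to 90 °C at 1 °C/min, fluorescence read at 500 nm. Tm shifts across an 11-point DMSO dilution series were fitted with DSC-derived thermodynamic parameters.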

SMILES	Kd [1]	Kd [2]	IC50 [3]	Kd [4]
Cc1nc(N)sc1-c1csc(Nc2cc(S(N)(=O)=O)ccc2OC(C)C)n1 [Example 60, 3-(2′-Amino-4′-methyl-[4,5′]bithiazolyl-2-ylamino)-4-isopropoxy-benzenesulfonamide.TFA]	0.058 µM	0.11 µM	0.35 µM	0.07 µM
Cc1nc(N2CCN(C)CC2)sc1-c1csc(Nc2cc(S(N)(=O)=O)ccc2OC(C)C)n1 [Example 61, 4-Isopropoxy-3-[4′-methyl-2′-(4-methyl-piperazin-1-yl)-[4,5′]bithiazolyl-2-ylamino]-benzenesulfonamide.TFA]	0.069 µM	0.14 µM	0.38 µM	0.11 µM
Cc1nc(C)c(-c2nc(Nc3cc(S(N)(=O)=O)ccc3OC(C)C)sc2F)s1 [Example 62, 3-(5-Fluoro-2′,4′-dimethyl-[4,5′]bithiazolyl-2-ylamino)-4-isopropoxy-benzenesulfonamide.TFA]	0.3 µM	0.67 µM	1.5 µM	0.16 µM
CC(=O)Nc1nc(C)c(-c2csc(Nc3cc(S(N)(=O)=O)ccc3OC(C)C)n2)s1 [Example 63, N-[2-(2-Isopropoxy-5-sulfamoyl-phenylamino)-4′-methyl-[4,5′]bithiazolyl-2′-yl]-acetamide.TFA]	0.52 µM	0.79 µM	0.75 µM	1.3 µM
CNC(=O)c1ccc(OC)c(Nc2nc(-c3sc(N)nc3C)cs2)c1 [Example 66, 3-(2′-Amino-4′-methyl-[4,5′]bithiazolyl-2-ylamino)-4-methoxy-N-methyl-benzamide.TFA]	2.8 µM	1.8 µM	4.9 µM	2.6 µM
COc1ccc([N+](=O)[O-])cc1Nc1nc(-c2sc(NC(C)=O)nc2C)cs1 [Example 68, N-[2-(2-Methoxy-5-nitro-phenylamino)-4′-methyl-[4,5′]bithiazolyl-2′-yl]-acetamide.TFA]	0.32 µM	0.55 µM	0.097 µM	8.4 µM
COc1ccc(N)cc1Nc1nc(-c2sc(NC(C)=O)nc2C)cs1 [Example 69, N-[2-(5-Amino-2-methoxy-phenylamino)-4′-methyl-[4,5′]bithiazolyl-2′-yl]-acetamide]	4.8 µM	1.1 µM	1.4 µM	25 µM
CCOc1ccc(S(N)(=O)=O)cc1Nc1nc(-c2sc(C)nc2C)cs1 [Example 70, 3-(2′,4′-Dimethyl-[4,5′]bithiazolyl-2-ylamino)-4-ethoxy-benzenesulfonamide.HCl]	0.25 µM	0.41 µM	0.46 µM	1.1 µM
Cc1nc(N)sc1-c1csc(Nc2cc(C#N)ccc2OC(C)C)n1 [Example 71, 3-(2′-Amino-4′-methyl-[4,5′]bithiazolyl-2-ylamino)-4-isopropoxy-benzonitrile.HBr]	0.28 µM	0.095 µM	0.87 µM	0.042 µM
COc1ccc(S(C)(=O)=O)cc1Nc1nc(-c2sc(NC(C)=O)nc2C)cs1 [Example 74, N-[2-(5-Methanesulfonyl-2-methoxy-phenylamino)-4′-methyl-[4,5]bithiazolyl-2′-yl]acetamide.HBr]	1.8 µM	0.5 µM	2.5 µM	2.4 µM
COc1ccc(S(C)(=O)=O)cc1Nc1nc(-c2sc(N)nc2C)cs1 [Example 75, N^2-(5-Methanesulfonyl-2-methoxy-phenyl)-4′-methyl-[4,5′]bithiazolyl-2,2′-diamine.HBr]	1.1 µM	0.6 µM	1.6 µM	1.5 µM
Cc1nc(C)c(-c2csc(Nc3cc(C(=O)O)ccc3OC(C)C)n2)s1 [Example 76, 3-(2′,4′-Dimethyl-[4,5′]bithiazolyl-2-ylamino)-4-isopropoxy-benzoic acid]	0.57 µM	0.78 µM	0.43 µM	0.37 µM
